This is an account of results in US8269000B2, “Substituted pyrimidine and triazine compounds” (Gruenenthal GmbH, priority 2008, dated 2012).

One test concerns the target T1, human B1R (Homo sapiens, UniProt P46663).
T1 construct: expressed in transfected cells; host or cells: CHO K1 cells
T1 sequence (P46663 1-353): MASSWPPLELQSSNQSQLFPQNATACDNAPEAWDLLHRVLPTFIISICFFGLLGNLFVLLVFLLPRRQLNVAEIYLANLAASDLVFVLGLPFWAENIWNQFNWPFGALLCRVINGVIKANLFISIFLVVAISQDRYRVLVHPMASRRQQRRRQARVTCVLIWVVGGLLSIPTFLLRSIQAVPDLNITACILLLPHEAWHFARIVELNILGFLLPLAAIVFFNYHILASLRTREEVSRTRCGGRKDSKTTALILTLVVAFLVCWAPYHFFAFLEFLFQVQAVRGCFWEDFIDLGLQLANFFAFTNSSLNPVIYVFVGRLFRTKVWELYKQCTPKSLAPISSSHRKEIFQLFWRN
The test is described as follows: FLIPR Ca2+ functional study on bradykinin receptor 1 (hB1R CHO K1 cells). The test is classed as cell-based. The conditions noted are these: % inhibition human B1R at 10 μM; for inhibition at 10 µM: read-out: % inh. (hum. B1R) 10 μM. The method in brief:
(§1)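 CHO K1 cells stably expressing human or rat B1R were loaded with Fluo-4 and read on FLIPR (ex 488/em 540 nm, peak counts). Test compound (10 μM, or a concentration range for IC50) was added first for % activation versus control agonist; after 10-20 min, EC80 Lys-Des-Arg9-bradykinin (human) or Des-Arg9-bradykinin (rat) was added, giving % inhibition of maximum. n=2-3, N≥2.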

A further test has as its target T2, rat B1R (Rattus norvegicus, UniProt P97583).
T2 construct: expressed in transfected cells; host or cells: CHO K1 cells
T2 sequence (P97583 1-337): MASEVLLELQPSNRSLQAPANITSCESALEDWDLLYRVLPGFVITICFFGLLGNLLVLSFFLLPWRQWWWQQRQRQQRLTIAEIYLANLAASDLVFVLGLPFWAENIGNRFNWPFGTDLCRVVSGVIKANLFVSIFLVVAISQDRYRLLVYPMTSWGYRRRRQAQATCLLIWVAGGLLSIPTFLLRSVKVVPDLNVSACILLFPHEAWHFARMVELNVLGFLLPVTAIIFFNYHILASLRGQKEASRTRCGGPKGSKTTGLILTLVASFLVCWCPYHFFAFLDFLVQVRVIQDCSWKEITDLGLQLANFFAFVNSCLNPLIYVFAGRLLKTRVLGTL
Description: FLIPR Ca2+ functional study on bradykinin receptor 1 (rB1R CHO K1 cells). It counts as cell-based. The note with it: for inhibition at 10 µM: CHO-K1, % inhibition rat B1R at 10 μM, read-out: % inh. (rat B1R) 10 μM; for % inh. (rat B1R) 10 μM: % inhibition rat B1R at 10 μM. The method in brief: as §1

On to `COc1cc(C)c(S(=O)(=O)N2CCCCC2COc2nccc(N3CCN(C4CCN(C)CC4)CC3)n2)c(C)c1` (stereo not drawn) [G_CC-002, 2-[[1-(4-methoxy-2,6-dimethylphenyl)sulfonyl-2-piperidinyl]methoxy]-4-[4-(1-methyl-4-piperidinyl)-1-piperazinyl]pyrimidine], for which the values for the inhibition at 10 µM at human B1R and at rat B1R were 99% and 101%, respectively.
Taken in the same sequence, the figures for `COc1cc(C)c(S(=O)(=O)N2CCCCC2COc2nccc(N3CCC(CCN4CCCC4)CC3)n2)c(C)c1` (stereo not drawn) [G_CC-003, 2-[[1-(4-methoxy-2,6-dimethylphenyl)sulfonyl-2-piperidinyl]methoxy]-4-[4-(2-1-pyrrolidinylethyl)-1-piperidinyl]pyrimidine] were 100% and 102%.
As to `COc1cc(C)c(S(=O)(=O)N2CCCCC2COc2nccc(N(C)CCN3CCC(c4ccccc4)(N(C)C)CC3)n2)c(C)c1` (stereo not drawn) [G_CC-004, N-[2-(4-dimethylamino-4-phenyl-1-piperidinyl)ethyl]-2-[[1-(4-methoxy-2,6-dimethylphenyl)sulfonyl-2-piperidinyl]methoxy]-N-methyl-4-pyrimidineamine], the inhibition at 10 µM on human B1R and at rat B1R was 100% throughout.
On to `COc1cc(C)c(S(=O)(=O)N2CCCCC2COc2nccc(N3CCC(N4CCN(C)CC4)CC3)n2)c(C)c1` (stereo not drawn) [G_CC-011, 2-[[1-(4-methoxy-2,6-dimethylphenyl)sulfonyl-2-piperidinyl]methoxy]-4-[4-(4-methyl-1-piperazinyl)-1-piperidinyl]pyrimidine], for which the inhibition at 10 µM on human B1R was found to be 91%; on rat B1R it was 96%.
With `COc1cc(C)c(S(=O)(=O)N2CCCCC2COc2nccc(N3CCN(c4ccncc4)CC3)n2)c(C)c1` (stereo not drawn) [G_CC-013, 2-[[1-(4-methoxy-2,6-dimethylphenyl)sulfonyl-2-piperidinyl]methoxy]-4-[4-(4-pyridyl)-1-piperazinyl]pyrimidine], the inhibition at 10 µM at human B1R turned out to be 100%; at rat B1R it was 102%.
On the same counts, the results for `COc1cc(C)c(S(=O)(=O)N2CCCCC2COc2nccc(N3CCN(CC4CCN(C)CC4)CC3)n2)c(C)c1` (stereo not drawn) [G_CC-014, 2-[[1-(4-methoxy-2,6-dimethylphenyl)sulfonyl-2-piperidinyl]methoxy]-4-[4-[(1-methyl-4-piperidinyl)methyl]-1-piperazinyl]pyrimidine] are 94% and 105%.
On the same counts, the results for `COc1cc(C)c(S(=O)(=O)N2CCC[C@H]2COc2nccc(N3CCC(CCN4CCCC4)CC3)n2)c(C)c1` [G_CC-016, 2-[[(2S)-1-(4-methoxy-2,6-dimethylphenyl)sulfonyl-2-pyrrolidinyl]methoxy]-4-[4-(2-1-pyrrolidinylethyl)-1-piperidinyl]pyrimidine] are 96% and 100%.
Consider `COc1cc(C)c(S(=O)(=O)N2CCC[C@H]2COc2nccc(N3CCN(c4ccncc4)CC3)n2)c(C)c1` [G_CC-019, 2-[[(2S)-1-(4-methoxy-2,6-dimethylphenyl)sulfonyl-2-pyrrolidinyl]methoxy]-4-[4-(4-pyridyl)-1-piperazinyl]pyrimidine], for which the inhibition at 10 µM on human B1R amounted to 100%; on rat B1R it was 104%.
As for `COc1cc(C)c(S(=O)(=O)N2CCC[C@H]2COc2nccc(N3CCC(O)(c4cccs4)CC3)n2)c(C)c1` [G_CC-021, 1-[2-[[(2S)-1-(4-methoxy-2,6-dimethylphenyl)sulfonyl-2-pyrrolidinyl]methoxy]-4-pyrimidinyl]-4-(2-thienyl)-4-piperidinol], the figures for the inhibition at 10 µM at human B1R and on rat B1R were 36% and 105%, respectively.
Turning to `COc1cc(C)c(S(=O)(=O)N2CCCCC2COc2nccc(N3CCC(CCN4CCCCC4)CC3)n2)c(C)c1` (stereo not drawn) [G_CC-026], at human B1R, the “% inh. (hum. B1R) 10 μM” value amounted to 97%. Also, the “% inh. (rat B1R) 10 μM” value on rat B1R is 100%.
For the compound `COc1cc(C)c(S(=O)(=O)N2CCC[C@H]2COc2nccc(N3CCC4(CCN(Cc5ccccc5)C4)C3)n2)c(C)c1` (stereo partly drawn) [G_CC-032, 3-benzyl-7-[2-[[(2S)-1-(4-methoxy-2,6-dimethylphenyl)sulfonyl-2-pyrrolidinyl]methoxy]-4-pyrimidinyl]-3,7-diazaspiro[4.4]nonane], the inhibition at 10 µM on human B1R amounted to 86%; at rat B1R it was 105%.
On the same counts, the results for `COc1cc(C)c(S(=O)(=O)N2CCC[C@H]2COc2nccc(N3CCC4(CC3)C(=O)NCN4c3ccccc3)n2)c(C)c1` [G_CC-035, 8-[2-[[(2S)-1-(4-methoxy-2,6-dimethylphenyl)sulfonyl-2-pyrrolidinyl]methoxy]-4-pyrimidinyl]-4-phenyl-2,4,8-triazaspiro[4.5]decan-1-one] are -1% and 99%.
With `COc1cc(C)c(S(=O)(=O)N2CCC[C@H]2COc2nccc(N3CCN(C4CCN(C)CC4)CC3)n2)c(C)c1` [G_CC-036, 2-[[(2S)-1-(4-methoxy-2,6-dimethylphenyl)sulfonyl-2-pyrrolidinyl]methoxy]-4-[4-(1-methyl-4-piperidinyl)-1-piperazinyl]pyrimidine], the inhibition at 10 µM at human B1R was found to be 75%; at rat B1R it was 102%.
On the same counts, the results for `COc1cc(C)c(S(=O)(=O)N2CCCCC2COc2nccc(N3CCC4(CCN(Cc5ccc(F)cc5)C4=O)CC3)n2)c(C)c1` (stereo not drawn) [G_CC-039, 3-[(4-fluorophenyl)methyl]-8-[2-[[1-(4-methoxy-2,6-dimethylphenyl)sulfonyl-2-piperidinyl]methoxy]-4-pyrimidinyl]-3,8-diazaspiro[4.5]decan-4-one] are 58% and 99%.
Taken in the same sequence, the figures for `COc1cc(C)c(S(=O)(=O)N2CCCCC2COc2nccc(N3CCC4(CCN(Cc5ccccc5)C4=O)CC3)n2)c(C)c1` (stereo not drawn) [G_CC-040, 3-benzyl-8-[2-[[1-(4-methoxy-2,6-dimethylphenyl)sulfonyl-2-piperidinyl]methoxy]-4-pyrimidinyl]-3,8-diazaspiro[4.5]decan-4-one] were 57% and 99%.
On the same counts, the results for `COc1cc(C)c(S(=O)(=O)N2CCCC(Oc3nccc(N4CCC5(CCN(c6ccncc6)CC5)CC4)n3)C2)c(C)c1` (stereo not drawn) [G_CC-041, 9-[2-[[1-(4-methoxy-2,6-dimethylphenyl)sulfonyl-3-piperidinyl]oxy]-4-pyrimidinyl]-3-(4-pyridyl)-3,9-diazaspiro[5.5]undecane] are 96% and 101%.
Turning to `COc1cc(C)c(S(=O)(=O)N(C)CCOc2nccc(N3CCC4(CCN(c5ccncc5)CC4)CC3)n2)c(C)c1` [G_CC-047, 4-methoxy-N,2,6-trimethyl-N-[2-[[4-[3-(4-pyridyl)-3,9-diazaspiro[5.5]undecan-9-yl]-2-pyrimidinyl]oxy]ethyl]benzenesulfonamide], the inhibition at 10 µM on human B1R amounted to 100%; on rat B1R, 99%.
Taken in the same sequence, the figures for `COc1cc(C)c(S(=O)(=O)N2CCC[C@H]2COc2nccc(N3CCC4(CC3)CCN(c3ccc(F)cc3)C4=O)n2)c(C)c1` [G_CC-048, 3-(4-fluorophenyl)-8-[2-[[(2S)-1-(4-methoxy-2,6-dimethylphenyl)sulfonyl-2-pyrrolidinyl]methoxy]-4-pyrimidinyl]-3,8-diazaspiro[4.5]decan-4-one] were 28% and 96%.
Taken in the same sequence, the figures for `COc1cc(C)c(S(=O)(=O)N2CCC[C@H]2COc2nccc(N3CCC4(CCN(Cc5ccc(F)cc5)C4=O)CC3)n2)c(C)c1` [G_CC-051, 3-[(4-fluorophenyl)methyl]-8-[2-[[(2S)-1-(4-methoxy-2,6-dimethylphenyl)sulfonyl-2-pyrrolidinyl]methoxy]-4-pyrimidinyl]-3,8-diazaspiro[4.5]decan-4-one] were 38% and 98%.
Turning to `COc1cc(C)c(S(=O)(=O)N2CCC[C@H]2COc2nccc(N3CCC(Oc4ccncc4)CC3)n2)c(C)c1` [G_CC-052, 2-[[(2S)-1-(4-methoxy-2,6-dimethylphenyl)sulfonyl-2-pyrrlidinyl]methoxy]-4-[4-(4-pyridyloxy)-1-piperidinyl]pyrimidine], the “% inh. (hum. B1R) 10 μM” value on human B1R was 74%. Further, at rat B1R, the “% inh. (rat B1R) 10 μM” value worked out at 99%.
Take `COc1cc(C)c(S(=O)(=O)N2CCC[C@H]2COc2nccc(N3CCC4(CCN(c5ccncc5)CC4)CC3)n2)c(C)c1` [G_CC-055, 9-[2-[[(2S)-1-(4-methoxy-2,6-dimethylphenyl)sulfonyl-2-pyrrolidinyl)methoxy]-4-pyrimidinyl]-3-(4-pyridyl)-3,9-diazaspiro[5.5]undecane]: the inhibition at 10 µM was 97% at human B1R and 101% at rat B1R.
